Source: ChEMBL document CHEMBL1629647, “Preclinical evaluation of GS-9160, a novel inhibitor of human immunodeficiency virus type 1 integrase” (Antimicrob Agents Chemother, 2009)

Columns and labels:
[1] = test system: Human immunodeficiency virus 1; assay: Antiviral activity against HIV1 3B infected in human MT-2 cells by two fold dilution method in presence of 10% FBS; type: functional, organism-based; settings: Human immunodeficiency virus 1, 3B, MT2
[2] = test system: Human immunodeficiency virus 1; assay: Selectivity ratio of EC50 for antiviral activity against HIV1 harboring G140S and Q148H mutation in catalytic core domain of integrase to EC50 for antiviral activity against wild-type HIV1 3B; type: functional
[3] = test system: Human immunodeficiency virus 1; assay: Selectivity ratio of EC50 for antiviral activity against HIV1 harboring Q148K mutation in catalytic core domain of integrase to EC50 for antiviral activity against wild-type HIV1 3B; type: functional
[4] = test system: Human immunodeficiency virus 1; assay: Selectivity ratio of EC50 for antiviral activity against NRTI-resistant HIV1 harboring RTM184V mutant gene to EC50 for antiviral activity against wild-type HIV1 3B; type: functional
[5] = test system: Human immunodeficiency virus 1; assay: Selectivity ratio of EC50 for antiviral activity against NRTI-resistant HIV1 harboring RT-6TAMs mutant gene to EC50 for antiviral activity against wild-type HIV1 3B; type: functional
[6] = test system: Human immunodeficiency virus 1; assay: Selectivity ratio of EC50 for antiviral activity against HIV1 harboring G140S mutation in catalytic core domain of integrase to EC50 for antiviral activity against wild-type HIV1 3B; type: functional
[7] = test system: Human immunodeficiency virus 1; assay: Selectivity ratio of EC50 for antiviral activity against HIV1 harboring L74M and E92V mutation in catalytic core domain of integrase to EC50 for antiviral activity against wild-type HIV1 3B; type: functional
[8] = test system: Human immunodeficiency virus 1; assay: Selectivity ratio of EC50 for antiviral activity against PI-resistant HIV1 harboring […], L90M mutant gene to EC50 for antiviral activity against wild-type HIV1 3B; type: functional
[9] = test system: Human immunodeficiency virus 1; assay: Selectivity ratio of EC50 for antiviral activity against HIV1 harboring V151A mutation in catalytic core domain of integrase to EC50 for antiviral activity against wild-type HIV1 3B; type: functional
[10] = test system: Human immunodeficiency virus 1; assay: Selectivity ratio of EC50 for antiviral activity against NNRTI-resistant HIV1 harboring RTY181C mutant gene to EC50 for antiviral activity against wild-type HIV1 3B; type: functional
[11] = test system: Human immunodeficiency virus 1; assay: Selectivity ratio of EC50 for antiviral activity against HIV1 harboring E138K mutation in catalytic core domain of integrase to EC50 for antiviral activity against wild-type HIV1 3B; type: functional
[12] = test system: Human immunodeficiency virus 1; assay: Selectivity ratio of EC50 for antiviral activity against HIV1 harboring E92V, G140S and V151A mutation in catalytic core domain of integrase to EC50 for antiviral activity against wild-type HIV1 3B; type: functional
[13] = test system: Human immunodeficiency virus 1; assay: Selectivity ratio of EC50 for antiviral activity against PI-resistant HIV1 harboring […], V82A and L90M mutant gene to EC50 for antiviral activity against wild-type HIV1 3B; type: functional
[14] = test system: Human immunodeficiency virus 1; assay: Selectivity ratio of EC50 for antiviral activity against HIV1 harboring L74M mutation in catalytic core domain of integrase to EC50 for antiviral activity against wild-type HIV1 3B; type: functional
[15] = test system: Human immunodeficiency virus 1; assay: Selectivity ratio of EC50 for antiviral activity against HIV1 harboring E138K and Q148K mutation in catalytic core domain of integrase to EC50 for antiviral activity against wild-type HIV1 3B; type: functional
[16] = test system: Human immunodeficiency virus 1; assay: Selectivity ratio of EC50 for antiviral activity against HIV1 harboring N155H mutation in catalytic core domain of integrase to EC50 for antiviral activity against wild-type HIV1 3B; type: functional
[17] = test system: Human immunodeficiency virus 1; assay: Selectivity ratio of EC50 for antiviral activity against HIV1 harboring E92V and V151A mutation in catalytic core domain of integrase to EC50 for antiviral activity against wild-type HIV1 3B; type: functional
[18] = test system: Human immunodeficiency virus 1; assay: Selectivity ratio of EC50 for antiviral activity against HIV1 harboring T66I mutation in catalytic core domain of integrase to EC50 for antiviral activity against wild-type HIV1 3B; type: functional
[19] = test system: Human immunodeficiency virus 1; assay: Selectivity ratio of EC50 for antiviral activity against HIV1 harboring E92V mutation in catalytic core domain of integrase to EC50 for antiviral activity against wild-type HIV1 3B; type: functional
[20] = test system: Human immunodeficiency virus 1; assay: Selectivity ratio of EC50 for antiviral activity against NNRTI-resistant HIV1 harboring RTK103N mutant gene to EC50 for antiviral activity against wild-type HIV1 3B; type: functional
[21] = test system: Human immunodeficiency virus 1; assay: Selectivity ratio of EC50 for antiviral activity against HIV1 harboring E92Q mutation in catalytic core domain of integrase to EC50 for antiviral activity against wild-type HIV1 3B; type: functional
[22] = test system: Human immunodeficiency virus 1; assay: Selectivity ratio of EC50 for antiviral activity against HIV1 harboring N155S mutation in catalytic core domain of integrase to EC50 for antiviral activity against wild-type HIV1 3B; type: functional
[23] = test system: Human immunodeficiency virus 1; assay: Selectivity ratio of EC50 for antiviral activity against NRTI-resistant HIV1 harboring RTK65R mutant gene to EC50 for antiviral activity against wild-type HIV1 3B; type: functional
[24] = test system: Human immunodeficiency virus 1; assay: Selectivity ratio of EC50 for antiviral activity against EFV-resistant HIV1 selected after 3 passages to EC50 for antiviral activity against wild-type HIV1 3B; type: functional
[25] = test system: Human immunodeficiency virus 1; assay: Selectivity ratio of EC50 for antiviral activity against 3TC-resistant HIV1 selected after 4 passages to EC50 for antiviral activity against wild-type HIV1 3B; type: functional
[26] = test system: Human immunodeficiency virus 1; assay: Selectivity ratio of EC50 for antiviral activity against APV-resistant HIV1 selected after 4 passages to EC50 for antiviral activity against wild-type HIV1 3B; type: functional
[27] = test system: Human immunodeficiency virus 1; assay: Selectivity ratio of EC50 for antiviral activity against 3TC-resistant HIV1 selected after 8 passages to EC50 for antiviral activity against wild-type HIV1 3B; type: functional
[28] = test system: Human immunodeficiency virus 1; assay: Selectivity ratio of EC50 for antiviral activity against APV-resistant HIV1 selected after 2 passages to EC50 for antiviral activity against wild-type HIV1 3B; type: functional
[29] = test system: Human immunodeficiency virus 1; assay: Selectivity ratio of EC50 for antiviral activity against EFV-resistant HIV1 selected after 7 passages to EC50 for antiviral activity against wild-type HIV1 3B; type: functional
[30] = test system: Human immunodeficiency virus 1; assay: Selectivity ratio of EC50 for antiviral activity against GS-9160-resistant HIV1 selected after 6 passages to EC50 for antiviral activity against wild-type HIV1 3B; type: functional
[31] = test system: Human immunodeficiency virus 1; assay: Selectivity ratio of EC50 for antiviral activity against GS-9160-resistant HIV1 selected after 5 passages to EC50 for antiviral activity against wild-type HIV1 3B; type: functional
[32] = test system: Human immunodeficiency virus 1; assay: Selectivity ratio of EC50 for antiviral activity against GS-9160-resistant HIV1 selected after 9 passages to EC50 for antiviral activity against wild-type HIV1 3B; type: functional
[33] = test system: Human immunodeficiency virus 1; assay: Selectivity ratio of EC50 for antiviral activity against GS-9160-resistant HIV1 selected after 8 passages to EC50 for antiviral activity against wild-type HIV1 3B; type: functional
[34] = Cytotoxicity against human MT4 cells infected with HIV1 3B by three fold dilution method in presence of 10% FBS; type: cell-based; settings: MT4 cells infected with HIV-1 3B
[35] = test system: Human immunodeficiency virus 1; assay: Antiviral activity against HIV1 3B infected in human MT-2 cells by two fold dilution method in presence of 10% FBS, HSA and alpha1-AGP; type: functional, organism-based; settings: Human immunodeficiency virus 1, 3B, MT2
[36] = test system: Human immunodeficiency virus 1; assay: Antiviral activity against HIV1 3B infected in human MT-4 cells by two fold dilution method in presence of 10% FBS; type: functional, organism-based; settings: Human immunodeficiency virus 1, 3B, MT4
[37] = Cytotoxicity against human uninfected MT2 cells by three fold dilution method in presence of 10% FBS

| SMILES | EC50 [1] | Ratio EC50 [2] | Ratio EC50 [3] | Ratio EC50 [4] | Ratio EC50 [5] | Ratio EC50 [6] | Ratio EC50 [7] | Ratio EC50 [8] | Ratio EC50 [9] | Ratio EC50 [10] | Ratio EC50 [11] | Ratio EC50 [12] | Ratio EC50 [13] | Ratio EC50 [14] | Ratio EC50 [15] | Ratio EC50 [16] | Ratio EC50 [17] | Ratio EC50 [18] | Ratio EC50 [19] | Ratio EC50 [20] | also measured |
| --- | --- | --- | --- | --- | --- | --- | --- | --- | --- | --- | --- | --- | --- | --- | --- | --- | --- | --- | --- | --- | --- |
| CC(C)c1nc(COC(N)=O)n(Cc2ccncc2)c1Sc1cc(Cl)cc(Cl)c1 [CAPRAVIRINE] | 0.2 nM | 0.2 | 1 | 1 | 762 | 2 | 3 | 1 | 4 | 89 | 3 | 3 | 1 | 1 | 3 | 6 | 2 | 2 | 3 | 0 | Ratio EC50 [21]: 1; Ratio EC50 [22]: 6; Ratio EC50 [23]: 0.4 |
| Nc1ccn([C@@H]2CS[C@H](CO)O2)c(=O)n1 [LAMIVUDINE] |  |  |  |  |  |  |  |  |  |  |  |  |  |  |  |  |  |  |  |  | Ratio EC50 [24]: 2; Ratio EC50 [25]: >272; Ratio EC50 [26]: 9; Ratio EC50 [27]: >272; Ratio EC50 [28]: 7; Ratio EC50 [29]: 1; Ratio EC50 [30]: 4.5; Ratio EC50 [31]: 1.8; Ratio EC50 [32]: 1.4; Ratio EC50 [33]: 5.7 |
| Cc1nnc(C(=O)NC(C)(C)c2nc(C(=O)NCc3ccc(F)cc3)c(O)c(=O)n2C)o1 | 3 nM |  |  |  |  |  |  |  |  |  |  |  |  |  |  |  |  |  |  |  | CC50 [34]: 58200 nM; EC50 [35]: 18 nM; EC50 [36]: 8 nM; CC50 [37]: > 100000 nM |
| CC(C)OC(=O)OCOP(=O)(CO[C@H](C)Cn1cnc2c(N)ncnc21)OCOC(=O)OC(C)C.O=C(O)/C=C/C(=O)O [TENOFOVIR DISOPROXIL FUMARATE] | 6.8 nM | 0.3 | 1 | 1 | 9 | 1 | 1 | 1 | 2 | 1 | 2 | 2 | 1 | 1 | 2 | 2 | 2 | 1 | 2 | 1 | Ratio EC50 [21]: 1; Ratio EC50 [22]: 2; Ratio EC50 [23]: 4 |
